In US20130109714A1, “NEURODEGENERATIVE DISEASE THERAPEUTIC AGENT” (National University Corporation Hokkaido University, priority 2010, published 2013):

Tests used:
[1] = test system: cerebral stroke model rat; details: in vivo
[2] = test system: primary nerve cells of the rat ventral midbrain; experiment: H2O2-induced cell death in primary nerve cells, MTT assay; type: cell-based; details: 1 μM compound for 20 h, then 200 μM H2O2 for 3 h
Procedure: From germinal cells of a rat at 17-19 days pregnant, primary nerve cells of the rat ventral midbrain were prepared. To evaluate presence of dopamine-producing neurons in a cell culture, the cell culture was immunostained with anti-NeuN antibody and anti-TH antibody to identify each of whole neurons and dopamine-producing neurons, and cell nuclei were stained with DAPI.
Therefore, it was clarified that No. 23 provides a resistance against nerve cell death induced by oxidative stress.

[3] = test system: mouse injected with 6-OHDA to the unilateral (left) midbrain; experiment: 6-OHDA Parkinson's disease model, methamphetamine-induced rotational behavior; type: in vivo; details: administered together with methamphetamine, up to 7 days after administration
Procedure: To evaluate effects of a DJ-1 bound compound on Parkinson's disease in vivo, 6-OHDA was stereotactically injected to the unilateral (left) midbrain of a mouse. Then, the DJ-1 bound compound (No. 23) was administered together with methamphetamine. Here, administration of methamphetamine to an animal induces ipsilateral movement relative to the injection site. Accordingly, by the administration of methamphetamine to a mouse, a rotational behavior is observed.

COc1cc(C(=O)Nc2ccc(-c3cn4cccc(C)c4n3)cc2)cc(OC)c1OC [No. 23]
cell death in brain, TTC staining, infarct area and volume (FIGS. 4-7) [1]: significantly suppresses cell death | cell death caused by hydrogen peroxide in primary nerve cells (FIG. 12) [2]: no cell death was observed | rotational behavior, number of rotations (FIGS. 15 and 16) [3]: significantly suppressed
